What follows are compounds tested against T1, recombinant human 11 β-HSD1 (Homo sapiens, UniProt P28845) (assay: 11 β-HSD1 SPA Assay (Scintillation Proximity Assay)).
T1 construct: made in house; host or cells: E. coli
T1 sequence (P28845 whole entry): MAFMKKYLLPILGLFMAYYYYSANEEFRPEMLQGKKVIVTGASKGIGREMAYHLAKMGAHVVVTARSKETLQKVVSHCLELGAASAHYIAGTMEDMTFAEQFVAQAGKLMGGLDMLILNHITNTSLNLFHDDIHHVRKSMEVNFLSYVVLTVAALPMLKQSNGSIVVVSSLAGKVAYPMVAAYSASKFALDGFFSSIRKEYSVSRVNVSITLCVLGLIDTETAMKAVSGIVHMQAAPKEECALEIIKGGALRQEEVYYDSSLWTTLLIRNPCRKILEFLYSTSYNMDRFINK
Assay type: biochemical
Experimental: (§1) Inhibition of 11 βHSD1 by test compounds was assessed in vitro by a Scintillation Proximity Assay (SPA). The assay was carried out in a 384-well assay plate in a total well volume of 26 μl and contained a mixture of tritiated cortisone substrate (40 nM), NADPH cofactor (1 mM), inhibitor in serial dilutions ([…] to 10 μM), and purified E. coli-expressed recombinant human 11 βHSD1 (30-100 nM) in assay buffer (50 mM HEPES, 100 mM KCl, 5 mM NaCl, and 2 mM MgCl2, pH7.4). Following mixing, the plate was incubated for 2 hours at room temperature. Reactions were stopped by addition of 30 μl of protein A YSi SPA beads (10 mg/ml) that had been pre-incubated with glycyrrhetinic acid (1 mM) and a monoclonal cortisol antibody (3 μg/ml). The plate was then incubated overnight at room temperature prior to reading on a Microbeta counter. Percent inhibition of each compound was calculated based on the background and the maximal signals. Wells that contained substrate without compound or enzyme were used as the background signal, while the wells that contained substrate and enzyme without any compound were used as the maximal signal. The calculation of the IC50 values for the inhibitors was performed by Activity Base.
as §1, with “β-HSD1” for “βHSD1”
With `CC(C)(Oc1ncc(Cl)cc1F)C(=O)N[C@H]1C[C@H]2CC[C@@H](C1)N2c1ccc(S(C)(=O)=O)cn1` [Example 194, 2-[(5-chloro-3-fluoropyridin-2-yl)oxy]-2-methyl-N-{8-[5-(methylsulfonyl)pyridin-2-yl]-8-azabicyclo[3.2.1]oct-3-endo-yl}propanamide] the IC50 was < 2000 nM.
`CC(C)(Oc1ccc(Cl)cc1Cl)C(=O)N[C@H]1C[C@H]2CC[C@@H](C1)N2c1cccnc1` [Example 106, 2-[(2,4-dichlorophenyl)oxy]-2-methyl-N-(8-pyridin-3-yl-8-azabicyclo[3.2.1]oct-3-endo-yl)propanamide] was tested, and the IC50 was < 200 nM.
`CC(C)(Oc1cc(Cl)c(F)cc1Cl)C(=O)N[C@H]1C[C@H]2CC[C@@H](C1)N2c1ccc(C(N)=O)cn1` [Example 99, 6-[3-endo-({2-[(2,5-dichloro-4-fluorophenyl)oxy]-2-methylpropanoyl}amino)-8-azabicyclo[3.2.1]oct-8-yl]pyridine-3-carboxamide] was tested, and the IC50 was < 200 nM.
With `CC(C)(Oc1ccc2ccccc2c1)C(=O)N[C@H]1C[C@H]2CC[C@@H](C1)N2c1ccc(C(=O)NCC(F)(F)F)cn1` [Example 338, 6-(3-endo-{[2-methyl-2-(naphthalen-2-yloxy)propanoyl]amino}-8-azabicyclo[3.2.1]oct-8-yl)-N-(2,2,2-trifluoroethyl)pyridine-3-carboxamide] the IC50 was < 200 nM.
With `COc1ccc(OC(C)(C)C(=O)N[C@H]2C[C@H]3CC[C@@H](C2)N3c2ccc(S(C)(=O)=O)cc2)c(Cl)c1` [Example 254, 2-{[2-chloro-4-(methyloxy)phenyl]oxy}-2-methyl-N-{8-[4-(methylsulfonyl)phenyl]-8-azabicyclo[3.2.1]oct-3-endo-yl}propanamide] the IC50 was < 200 nM.
With `CC(C)(Oc1ccc(Cl)cc1-c1ccccc1)C(=O)N[C@H]1C[C@H]2CC[C@@H](C1)N2c1ccc(C(N)=O)cn1` [Example 322, 6-[3-endo-({2-[(5-chlorobiphenyl-2-yl)oxy]-2-methylpropanoyl}amino)-8-azabicyclo[3.2.1]oct-8-yl]pyridine-3-carboxamide] the IC50 was < 200 nM.
With `CC(C)(Oc1cc(CC(=O)O)c(Cl)cc1Cl)C(=O)N[C@H]1C[C@H]2CC[C@@H](C1)N2c1ccc(C(=O)NCC(F)F)cn1` [Example 460, [2,4-dichloro-5-({1-[(8-{5-[(2,2-difluoroethyl)carbamoyl]pyridin-2-yl}-8-azabicyclo[3.2.1]oct-3-endo-yl)amino]-2-methyl-1-oxopropan-2-yl}oxy)phenyl]acetic acid] the IC50 was < 200 nM.
In the case of `CC(C)(Oc1ccc(Cl)cc1S(C)(=O)=O)C(=O)N[C@H]1C[C@H]2CC[C@@H](C1)N2c1ccc(C(N)=O)cn1` [Example 334, 6-{3-endo-[(2-{[4-chloro-2-(methylsulfonyl)phenyl]oxy}-2-methylpropanoyl)amino]-8-azabicyclo[3.2.1]oct-8-yl}pyridine-3-carboxamide], the IC50 is reported as < 200 nM.
In the case of `CC(C)(Oc1ccc(Cl)cc1F)C(=O)N[C@H]1C[C@H]2CC[C@@H](C1)N2c1ccc(C(=O)NCC(F)(F)F)cn1` [Example 105, 6-[3-endo-({2-[(4-chloro-2-fluorophenyl)oxy]-2-methylpropanoyl}amino)-8-azabicyclo[3.2.1]oct-8-yl]-N-(2,2,2-trifluoroethyl)pyridine-3-carboxamide], the IC50 is reported as < 200 nM.
With `CC(C)(Oc1ccc(Cl)cc1Cl)C(=O)N[C@H]1C[C@H]2CC[C@@H](C1)N2c1ccc(N)cn1` [Example 88, N-[8-(5-aminopyridin-2-yl)-8-azabicyclo[3.2.1]oct-3-endo-yl]-2-[(2,4-dichlorophenyl)oxy]-2-methylpropanamide] the IC50 was < 200 nM.
`CC(C)(Oc1ccc2ccccc2n1)C(=O)N[C@H]1C[C@H]2CC[C@@H](C1)N2c1ccc(C(N)=O)cn1` [Example 310, 6-(3-endo-{[2-methyl-2-(quinolin-2-yloxy)propanoyl]amino}-8-azabicyclo[3.2.1]oct-8-yl)pyridine-3-carboxamide] was tested, and the IC50 was < 200 nM.
In the case of `CC(C)(Oc1ccc(Cl)cc1Cl)C(=O)NC1CC2CCC(C1)N2c1ccc(C(=O)N2CC[C@H](O)C2)cn1` (stereo partly drawn) [Example 462, 2-(2,4-dichlorophenoxy)-N-[8-(5-{[(3s)-3-hydroxypyrrolidin-1-yl]carbonyl}pyridin-2-yl)-8-azabicyclo[3.2.1]oct-3-endo-yl]-2-methylpropanamide], the IC50 is reported as < 200 nM.
In the case of `CC(C)(Oc1cccc2[nH]ccc12)C(=O)N[C@H]1C[C@H]2CC[C@@H](C1)N2c1ccc(C(=O)NCC(F)(F)F)cn1` [Example 366, 6-(3-endo-{[2-(1h-indol-4-yloxy)-2-methylpropanoyl]amino}-8-azabicyclo[3.2.1]oct-8-yl)-N-(2,2,2-trifluoroethyl)pyridine-3-carboxamide], the IC50 is reported as < 200 nM.
With `C[C@H](NC(=O)c1ccc(N2C3CCC2CC(NC(=O)C(C)(C)Oc2cc(F)c(Cl)cc2Cl)C3)nc1)C(F)(F)F` (stereo partly drawn) [Example 425, 6-(3-endo-{[2-(2,4-dichloro-5-fluorophenoxy)-2-methylpropanoyl]amino}-8-azabicyclo[3.2.1]oct-8-yl)-N-[(2S)-1,1,1-trifluoropropan-2-yl]pyridine-3-carboxamide] the IC50 was < 200 nM.
For `CC(C)(Oc1ncc(C(F)(F)F)cc1Cl)C(=O)N[C@H]1C[C@H]2CC[C@@H](C1)N2c1ccc(C(N)=O)cn1` [Example 149, 6-{3-endo-[(2-{[3-chloro-5-(trifluoromethyl)pyridin-2-yl]oxy}-2-methylpropanoyl)amino]-8-azabicyclo[3.2.1]oct-8-yl}pyridine-3-carboxamide], the IC50 was < 200 nM.
In the case of `C[C@H](NC(=O)c1ccc(N2C3CCC2CC(NC(=O)C(C)(C)Oc2ccc(F)c(Cl)c2Cl)C3)nc1)C(F)(F)F` (stereo partly drawn) [Example 437, 6-(3-endo-{[2-(2,3-dichloro-4-fluorophenoxy)-2-methylpropanoyl]amino}-8-azabicyclo[3.2.1]oct-8-yl)-N-[(2S)-1,1,1-trifluoropropan-2-yl]pyridine-3-carboxamide], the IC50 is reported as < 200 nM.
In the case of `CC(C)(Oc1ccc(Cl)cc1Cl)C(=O)N[C@H]1C[C@H]2CC[C@@H](C1)N2c1ccc(C(=O)NC2(CO)CC2)cn1` [Example 384, 6-(3-endo-{[2-(2,4-dichlorophenoxy)-2-methylpropanoyl]amino}-8-azabicyclo[3.2.1]oct-8-yl)-N-[1-(hydroxymethyl)cyclopropyl] pyridine-3-carboxamide], the IC50 is reported as < 200 nM.
In the case of `CC(=O)Nc1ccc(N2[C@@H]3CC[C@H]2C[C@@H](NC(=O)C(C)(C)Oc2ccc(Cl)cc2Cl)C3)nc1` [Example 94, N-{8-[5-(acetylamino)pyridin-2-yl]-8-azabicyclo[3.2.1]oct-3-endo-yl}-2-[(2,4-dichlorophenyl)oxy]-2-methylpropanamide], the IC50 is reported as < 200 nM.
For `CC(C)(Oc1cc(OC(C)(C)C(=O)N[C@H]2C[C@H]3CC[C@@H](C2)N3c2ccc(C(=O)NCC(F)(F)F)cn2)c(Cl)cc1Cl)C(N)=O` [Example 426, 6-{3-endo-[(2-{5-[(1-amino-2-methyl-1-oxopropan-2-yl)oxy]-2,4-dichlorophenoxy}-2-methylpropanoyl)amino]-8-azabicyclo[3.2.1]oct-8-yl}-N-(2,2,2-trifluoroethyl)pyridine-3-carboxamide], the IC50 was < 200 nM.
`CC(C)(Oc1ccc(Cl)cc1Cl)C(=O)N[C@H]1C[C@H]2CC[C@@H](C1)N2c1ccc(NC(=O)C2CC2)cn1` [Example 92, N-{6-[3-endo-({2-[(2,4-dichlorophenyl)oxy]-2-methylpropanoyl}amino)-8-azabicyclo[3.2.1]oct-8-yl]pyridin-3-yl}cyclopropanecarboxamide] was tested, and the IC50 was < 200 nM.
`CC(C)(Oc1ccc(F)cn1)C(=O)N[C@H]1C[C@H]2CC[C@@H](C1)N2c1ccc(C(=O)NCC(F)(F)F)cn1` [Example 109, 6-[3-endo-({2-[(5-fluoropyridin-2-yl)oxy]-2-methylpropanoyl}amino)-8-azabicyclo[3.2.1]oct-8-yl]-N-(2,2,2-trifluoroethyl)pyridine-3-carboxamide] was tested, and the IC50 was < 200 nM.
`CC(C)(Oc1ccc(Cl)c(Cl)c1)C(=O)N[C@H]1C[C@H]2CC[C@@H](C1)N2c1ccc(NS(C)(=O)=O)cc1` [Example 329, 2-[(3,4-dichlorophenyl)oxy]-2-methyl-N-(8-{4-[(methylsulfonyl)amino]phenyl}-8-azabicyclo[3.2.1]oct-3-endo-yl)propanamide] was tested, and the IC50 was < 200 nM.
For `CC(C)(Oc1ccc(Cl)c(F)c1)C(=O)N[C@H]1C[C@H]2CC[C@@H](C1)N2c1ccc(C(=O)NCC(F)(F)F)cc1` [Example 167, 4-[3-endo-({2-[(4-chloro-3-fluorophenyl)oxy]-2-methylpropanoyl}amino)-8-azabicyclo[3.2.1]oct-8-yl]-N-(2,2,2-trifluoroethyl)benzamide], the IC50 was < 200 nM.
